Measured values reported in US20220304907A1, “Oral Care Compositions” (Colgate-Palmolive Company, priority 2019, published 2022).

Tested on: LL-37
Experiment: LL-37 expression (qPCR) in OKF6 gingival epithelial cells after overnight treatment
Assay type: cell-based
Conditions: topical application to gingival epithelial cells (GEC)
Procedure: OKF6 Cells (Gingival epithelial cells) were grown in 6 well tissue culture plates. Cells monolayer was treated with indicated doses (FIG. 1) of Vitamin D3 or phenylbutyrate alone or in combinations of two and cells were further incubated in tissue culture incubator for overnight incubation. After overnight incubation, cells were harvested in RNA lysis buffer. Lysates were processed for RNA isolation using Qiagen RNA isolation kit. RNA was processed for c-DNA preparation and further amplified (qPCR) using LL-37 (Hs 01011708_m1), Cyp24A1 (Hs00989018_m1), GAPDH (Hs 99999905_m1) Taqman genes specific probes. QPCR data was analyzed for fold induction of LL-37 expression and relative difference of expressions was plotted. […] As illustrated by the data described in FIGS. 1 and 2, the inventive combinations of the present invention provide a synergistic increase in LL-37 and CYP24A1, respectively.

C=C1/C(=C\C=C2/CCC[C@]3(C)[C@@H]([C@H](C)CCCC(C)(C)O)CC[C@@H]23)C[C@@H](O)C[C@@H]1O [1,25(OH)2D3, 1,25-dihydroxycholecalciferol]
expression of anti-microbial peptide (LL-37) proteins: enhanced expression
